Data published in patent USRE45666E1, “Preparation of hydrophilic pressure sensitive adhesives having optimized adhesive properties” (priority 2000, dated 2015).
Where two headings read alike, the source gives them in different places.

Experiments:
[1] = In vitro drug delivery rate across Carbosil membrane; assay type: in vitro ADME
Method: In vitro drug delivery rate determination from water-soluble PSA matrices was performed using human cadaver skin or a skin-imitating Carbosil membrane to protect the matrices from dissolving in the receptor solution. The patch was adhered to the center of a Carbosil membrane sheet of twice its area. The membrane margins were then wrapped around the sample. The back side of the packet was closely attached to a steel plate-holder to prevent direct contact of the matrix with the receptor solution. In a similar fashion, cadaver skin epidermis can be used instead of a Carbosil membrane. The holder with the wrapped sample was then submerged into an aqueous sink and in vitro drug delivery rate was determined using a USP rotating cylinder method paddle-over-disc. The rate of drug appearance rate in a receptor solution (0.15 M NaCl) at 35.0±0.5° C. was determined spectrophotometrically.

[2] = Styrene butadiene rubber matrix

Clc1cccc(Cl)c1N=C1NCCN1 [Clonidine]
Release rate from hydrophobic matrices (PIB matrix (Catapress ® TTS)): 1.6 ± 0.2 μg/cm^2h | Delivery rate from hydrophilic matrix via Carbosil ([1]; hydrophilic PVP-PEG matrix): 5 ± 2 μg/cm^2h

O=[N+]([O-])OCC(CO[N+](=O)[O-])O[N+](=O)[O-] [Nitroglycerin]
Delivery rate from hydrophilic matrix via Carbosil [1]: 160 ± 40 μg/cm^2h

CC(C)NCC(O)COc1cccc2ccccc12 (stereo not shown) [Propranolol]
Release rate from hydrophobic matrices [2]: 56 ± 4 μg/cm^2h | Delivery rate from hydrophilic matrix via Carbosil ([1]; hydrophilic PVP-PEG matrix): 118 ± 25 μg/cm^2h

Silabolin
Release rate from hydrophobic matrices [2]: 16 ± 7 μg/cm^2h | Delivery rate from hydrophilic matrix via Carbosil ([1]; hydrophilic PVP-PEG matrix): 131 ± 30 μg/cm^2h
